Assay results published in ChEMBL document CHEMBL1144141, “Four new steroids from two octocorals” (J Nat Prod, 1999).
Values after ≈ are worked out from the molar mass of the structure shown.

How the values were obtained:
[1] = tested on: Amphibalanus amphitrite; test: Lethality against Balanus amphitrite cyprid larvae
[2] = tested on: Amphibalanus amphitrite; test: Antifouling activity against Balanus amphitrite assessed as inhibition of cyprid larval settlement; format: functional, organism-based

Row | SMILES | LD100 [1] | EC50 [2]
1 | COC(=O)/C=C/[C@@H](C)[C@H]1CC[C@H]2[C@@H]3CCC4=CC(=O)C=C[C@]4(C)[C@H]3CC[C@]12C | 100 µg/mL | 
2 | C=C[C@H]1CC[C@H]2[C@@H]3CCc4cc(OC)ccc4[C@H]3CC[C@]12C | 100 µg/mL | 
3 | CC(C)=CC(O)C(O)[C@@H](C)[C@H]1CC[C@H]2[C@@H]3CC[C@H]4CC(=O)C=C[C@]4(C)[C@H]3CC[C@]12C (stereo partly drawn) | 100 µg/mL | 
4 | C=C[C@H]1CC[C@H]2[C@@H]3CCc4cc(O[C@@H]5O[C@@H](C)[C@@H](OC(C)=O)[C@@H](O)[C@@H]5O)ccc4[C@H]3CC[C@]12C | 100 µg/mL | 
5 | CC(=O)O[C@H]1C[C@H]2[C@@H](CCC3=CC(=O)C=C[C@@]32C)[C@]23CC[C@]([C@H](C)CCCC(C)C)(O[C@@]12C)O3 [ISOGOSTERONE A] |  | 2.2 µg/mL (≈ 4.67 µM)
6 | CC(=O)O[C@H]1C[C@H]2[C@@H](CCC3=CC(=O)C=C[C@@]32C)[C@]2(CC[C@@](O)([C@H](C)C(=O)CCC(C)C)O2)[C@@]1(C)O [ISOGOSTERONE B] |  | 2.2 µg/mL (≈ 4.38 µM)
7 | CC(=O)OC(CCC(C)C)[C@@H](C)[C@]1(O)CC[C@@]2(O1)[C@@H]1CCC3=CC(=O)C=C[C@]3(C)[C@H]1C[C@H](OC(C)=O)[C@]2(C)O (stereo partly drawn) [ISOGOSTERONE C] |  | 2.2 µg/mL (≈ 4.02 µM)
8 | CC(=O)OC(CCC(C)C)[C@@H](C)[C@]12CC[C@@]3(O1)[C@@H]1CCC4=CC(=O)C=C[C@]4(C)[C@H]1C[C@H](OC(C)=O)[C@]3(C)O2 (stereo partly drawn) [ISOGOSTERONE D] |  | 2.2 µg/mL (≈ 4.16 µM)
